In ChEMBL document CHEMBL6087436, “The novel β-hairpin antimicrobial peptide D-G(RF)3 demonstrates exceptional antibacterial efficacy” (Eur J Med Chem, 2025):
Converted amounts (≈) assume the structure as drawn. The source made the active and inactive calls. No cut-off for these calls is given here. Where a SMILES comes first, the peptide text is derived from it. Bridges are numbered along the chain shown (N, C = ends). [ ]: non-standard residue; d: D form. The star is where a group is joined. Ileψ(thiazoline)Cys = CC[C@H](C)[C@H](N)C1=N[C@H](C(=O)*)CS1; dOrn = NCCC[C@@H](N)C(=O)O

Legend:
[1] = Retention time of the compound by RP-HPLC analysis; type: physicochemical
[2] = tested on: Klebsiella pneumoniae; assay: Antibacterial activity against Klebsiella pneumoniae ATCC 700603 assessed as inhibition of bacterial growth incubated for 18 hrs by microbroth dilution assay; type: functional
[3] = tested on: Escherichia coli; assay: Antibacterial activity against Escherichia coli ATCC 25922 assessed as inhibition of bacterial growth incubated for 18 hrs by microbroth dilution assay; type: functional
[4] = tested on: Staphylococcus aureus; assay: Antibacterial activity against Staphylococcus aureus ATCC 25923 assessed as inhibition of bacterial growth incubated for 18 hrs by microbroth dilution assay; type: functional
[5] = tested on: Bacillus subtilis; assay: Antibacterial activity against Bacillus subtilis ATCC 23857 assessed as inhibition of bacterial growth incubated for 18 hrs by microbroth dilution assay; type: functional
[6] = tested on: Staphylococcus epidermidis; assay: Antibacterial activity against Staphylococcus epidermidis ATCC 12228 assessed as inhibition of bacterial growth incubated for 18 hrs by microbroth dilution assay; type: functional
[7] = Hemolytic activity in Kunming mouse erythrocytes assessed as hemolysis incubated for 1 hr by multimode reader analysis; type: toxicity, cell-based; conditions: erythrocyte
[8] = tested on: Pseudomonas aeruginosa; assay: Antibacterial activity against Pseudomonas aeruginosa ATCC 27853 assessed as inhibition of bacterial growth incubated for 18 hrs by microbroth dilution assay; type: functional
[9] = tested on: Pseudomonas aeruginosa; assay: Induction of drug resistance in Pseudomonas aeruginosa ATCC 27853 assessed as fold increase in MIC incubated for 24 hrs and measured under 40 passages; type: functional
[10] = tested on: Cell membrane; assay: Induction of cell membrane permeability in Staphylococcus aureus assessed as bacterial dissolve at 2 times MIC by SEM analysis; type: subcellular
[11] = Hemolytic activity in Kunming mouse erythrocytes assessed as hemolytic rate at 256 uM incubated for 1 hr by multimode reader analysis relative to control; type: toxicity, cell-based, Erythrocyte; conditions: read-out: Activity
[12] = tested on: Cell membrane; assay: Induction of Cytoplasmic membrane depolarization in Staphylococcus aureus at 3.75 uM measured for every 10 mins by DiSC3(5) dye based fluorescence method

| Structure (SMILES) | Retention_time [1] [min] | MIC [2] [µM] | MIC [3] [µM] | MIC [4] [µM] | MIC [5] [µM] | MIC [6] [µM] | MHC10 [7] [µM] | MIC [8] [µM] | fold change (FC) [9] | Activity [10] | hemolysis at 1 h, 256 µM [11] [%] | Activity [12] |
| --- | --- | --- | --- | --- | --- | --- | --- | --- | --- | --- | --- | --- |
| N=C(N)NCCC[C@H](NC(=O)[C@H](Cc1ccccc1)NC(=O)[C@H](CCCNC(=N)N)NC(=O)[C@H](Cc1ccccc1)NC(=O)[C@H](CCCNC(=N)N)NC(=O)CNC(=O)[C@H]1CCCN1C(=O)[C@H](CCCNC(=N)N)NC(=O)[C@H](Cc1ccccc1)NC(=O)[C@H](CCCNC(=N)N)NC(=O)[C@H](Cc1ccccc1)NC(=O)[C@@H](N)CCCNC(=N)N)C(N)=O | 12.628 | 16 (≈ 27.2 µg/mL) | 8 (≈ 13.6 µg/mL) | 16 (≈ 27.2 µg/mL) | 4 (≈ 6.79 µg/mL) | 4 (≈ 6.79 µg/mL) | > 256 | 16 (≈ 27.2 µg/mL) | – | – | – | – |
| N=C(N)NCCC[C@H](NC(=O)CNC(=O)[C@H]1CCCN1C(=O)[C@H](CCCNC(=N)N)NC(=O)[C@H](Cc1ccccc1)NC(=O)[C@H](CCCNC(=N)N)NC(=O)[C@@H](N)Cc1ccccc1)C(=O)N[C@@H](Cc1ccccc1)C(=O)N[C@@H](CCCNC(=N)N)C(=O)N[C@@H](Cc1ccccc1)C(N)=O | 13.555 | > 128 | 64 (≈ 88.6 µg/mL) | 32 (≈ 44.3 µg/mL) | 8 (≈ 11.1 µg/mL) | 16 (≈ 22.2 µg/mL) | > 256 | 4 (≈ 5.54 µg/mL) | – | – | – | – |
| NCCCC[C@H](NC(=O)CNC(=O)[C@H]1CCCN1C(=O)[C@H](CCCCN)NC(=O)[C@H](Cc1c[nH]c2ccccc12)NC(=O)[C@H](CCCCN)NC(=O)[C@H](Cc1c[nH]c2ccccc12)NC(=O)[C@H](CCCCN)NC(=O)[C@@H](N)Cc1c[nH]c2ccccc12)C(=O)N[C@@H](Cc1c[nH]c2ccccc12)C(=O)N[C@@H](CCCCN)C(=O)N[C@@H](Cc1c[nH]c2ccccc12)C(=O)N[C@@H](CCCCN)C(=O)N[C@@H](Cc1c[nH]c2ccccc12)C(N)=O (H-WKWKWK[dP]GKWKWKW-NH2) | 14.49 | 16 (≈ 32.9 µg/mL) | 8 (≈ 16.5 µg/mL) | 8 (≈ 16.5 µg/mL) | 2 (≈ 4.12 µg/mL) | 4 (≈ 8.23 µg/mL) | > 256 | 4 (≈ 8.23 µg/mL) | – | – | – | – |
| CO[C@H]1/C=C/O[C@@]2(C)Oc3c(C)c(O)c4c(O)c(c(/C=N/N5CCN(C)CC5)c(O)c4c3C2=O)NC(=O)/C(C)=C\C=C\[C@H](C)[C@H](O)[C@@H](C)[C@@H](O)[C@@H](C)[C@H](OC(C)=O)[C@@H]1C [RIFAMPIN] | – | 64 (≈ 52.7 µg/mL) | 16 (≈ 13.2 µg/mL) | < 1 | < 1 | < 1 | – | 32 (≈ 26.3 µg/mL) | – | – | – | – |
| CC[C@H](C)[C@H](N)C1=N[C@H](C(=O)N[C@@H](CC(C)C)C(=O)N[C@H](CCC(=O)O)C(=O)N[C@H](C(=O)N[C@H]2CCCCNC(=O)[C@H](CC(N)=O)NC(=O)[C@@H](CC(=O)O)NC(=O)[C@H](Cc3cnc[nH]3)NC(=O)[C@@H](Cc3ccccc3)NC(=O)[C@H]([C@@H](C)CC)NC(=O)[C@@H](CCCN)NC2=O)[C@@H](C)CC)CS1 [BACITRACIN] ({Ileψ(thiazoline)Cys}-L[dE]IK[dOrn]I[dF]H[dD]N; lactam 4-C) | – | > 128 | > 128 | 32 (≈ 45.5 µg/mL) | > 128 | 16 (≈ 22.8 µg/mL) | – | > 128 | – | – | – | – |
| O=C(O)c1cn(C2CC2)c2cc(N3CCNCC3)c(F)cc2c1=O [CIPROFLOXACIN] | – | 8 (≈ 2.65 µg/mL) | < 1 | 8 (≈ 2.65 µg/mL) | 2 (≈ 0.663 µg/mL) | 8 (≈ 2.65 µg/mL) | – | 2 (≈ 0.663 µg/mL) | >128 | Active | – | – |
| NCCCC[C@H](NC(=O)CNC(=O)[C@H]1CCCN1C(=O)[C@H](CCCCN)NC(=O)[C@H](Cc1c[nH]c2ccccc12)NC(=O)[C@H](CCCCN)NC(=O)[C@@H](N)Cc1c[nH]c2ccccc12)C(=O)N[C@@H](Cc1c[nH]c2ccccc12)C(=O)N[C@@H](CCCCN)C(=O)N[C@@H](Cc1c[nH]c2ccccc12)C(N)=O (H-WKWK[dP]GKWKW-NH2) | 13.817 | > 128 | 64 (≈ 91.4 µg/mL) | 64 (≈ 91.4 µg/mL) | 8 (≈ 11.4 µg/mL) | 8 (≈ 11.4 µg/mL) | > 256 | 8 (≈ 11.4 µg/mL) | – | – | – | – |
| CC[C@H](C)[C@H](N)C(=O)N[C@@H](CCCNC(=N)N)C(=O)N[C@H](C(=O)N[C@@H](CCCNC(=N)N)C(=O)N1CCC[C@@H]1C(=O)NCC(=O)N[C@@H](CCCNC(=N)N)C(=O)N[C@H](C(=O)N[C@@H](CCCNC(=N)N)C(=O)N[C@H](C(N)=O)[C@@H](C)CC)[C@@H](C)CC)[C@@H](C)CC | 12.103 | > 128 | 128 (≈ 160 µg/mL) | 128 (≈ 160 µg/mL) | 32 (≈ 40 µg/mL) | 64 (≈ 79.9 µg/mL) | > 256 | 128 (≈ 160 µg/mL) | – | – | – | – |
| NC[C@H]1O[C@H](O[C@H]2[C@H](O)[C@@H](O[C@H]3O[C@H](CO)[C@@H](O)[C@H](N)[C@H]3O)[C@H](N)C[C@@H]2N)[C@H](O)[C@@H](O)[C@@H]1O [KANAMYCIN] | – | 64 (≈ 31 µg/mL) | 8 (≈ 3.88 µg/mL) | < 1 | < 1 | > 128 | – | > 128 | – | – | – | – |
| CC[C@H](C)[C@H](N)C(=O)N[C@@H](CCCNC(=N)N)C(=O)N[C@H](C(=O)N[C@@H](CCCNC(=N)N)C(=O)N[C@H](C(=O)N[C@@H](CCCNC(=N)N)C(=O)N1CCC[C@@H]1C(=O)NCC(=O)N[C@@H](CCCNC(=N)N)C(=O)N[C@H](C(=O)N[C@@H](CCCNC(=N)N)C(=O)N[C@H](C(=O)N[C@@H](CCCNC(=N)N)C(=O)N[C@H](C(N)=O)[C@@H](C)CC)[C@@H](C)CC)[C@@H](C)CC)[C@@H](C)CC)[C@@H](C)CC | 13.442 | 16 (≈ 28.6 µg/mL) | 16 (≈ 28.6 µg/mL) | 8 (≈ 14.3 µg/mL) | 2 (≈ 3.57 µg/mL) | 8 (≈ 14.3 µg/mL) | 512 | 4 (≈ 7.15 µg/mL) | – | – | 4.1 | – |
| CC[C@H](C)[C@H](NC(=O)[C@H](CCCNC(=N)N)NC(=O)[C@@H](NC(=O)[C@H](CCCNC(=N)N)NC(=O)CNC(=O)[C@H]1CCCN1C(=O)[C@H](CCCNC(=N)N)NC(=O)[C@@H](NC(=O)[C@H](CCCNC(=N)N)NC(=O)[C@@H](NC(=O)[C@@H](N)CCCNC(=N)N)[C@@H](C)CC)[C@@H](C)CC)[C@@H](C)CC)C(=O)N[C@@H](CCCNC(=N)N)C(N)=O | 11.367 | 32 (≈ 50 µg/mL) | 16 (≈ 25 µg/mL) | 32 (≈ 50 µg/mL) | 4 (≈ 6.24 µg/mL) | 8 (≈ 12.5 µg/mL) | > 256 | 16 (≈ 25 µg/mL) | – | – | – | – |
| C[C@@H](O)[C@H]1C(=O)N2C(C(=O)O)=C(SCCNC=N)C[C@H]12 [IMIPENEM ANHYDROUS] | – | < 1 | < 1 | < 1 | < 1 | < 1 | – | 16 (≈ 4.79 µg/mL) | – | – | – | – |
| NCCCC[C@H](NC(=O)[C@H](Cc1c[nH]c2ccccc12)NC(=O)[C@H](CCCCN)NC(=O)[C@H](Cc1c[nH]c2ccccc12)NC(=O)[C@H](CCCCN)NC(=O)CNC(=O)[C@H]1CCCN1C(=O)[C@H](CCCCN)NC(=O)[C@H](Cc1c[nH]c2ccccc12)NC(=O)[C@H](CCCCN)NC(=O)[C@H](Cc1c[nH]c2ccccc12)NC(=O)[C@@H](N)CCCCN)C(N)=O | 12.66 | 64 (≈ 108 µg/mL) | 16 (≈ 27 µg/mL) | 32 (≈ 53.9 µg/mL) | 2 (≈ 3.37 µg/mL) | 4 (≈ 6.74 µg/mL) | > 256 | 32 (≈ 53.9 µg/mL) | – | – | – | – |
| CC(C)[C@@H]1NC(=O)[C@H](C)OC(=O)[C@@H](C(C)C)NC(=O)[C@@H](C(C)C)OC(=O)[C@H](C(C)C)NC(=O)[C@H](C)OC(=O)[C@@H](C(C)C)NC(=O)[C@@H](C(C)C)OC(=O)[C@H](C(C)C)NC(=O)[C@H](C)OC(=O)[C@@H](C(C)C)NC(=O)[C@@H](C(C)C)OC1=O | – | – | – | – | – | – | – | – | – | – | – | Active |
